Tests used:
[1] = molecular target: T1, ATP-dependent translocase ABCB1 (Homo sapiens, UniProt P08183, Q1193K); assay: Negative allosteric modulator activity at human P-gp Q1193K mutant expressed in HEK293FT cells assessed as increase in intracellular doxorubicin accumulation using doxorubicin as substrate at 1 uM incubated for 150 mins by microplate reader assay (reference value: 69.1 +/- 1 %); type: cell-based; conditions: 2.5 h
[2] = molecular target: T2, ATP-dependent translocase ABCB1 (Homo sapiens, UniProt P08183, Q1193T); assay: Negative allosteric modulator activity at human P-gp Q1193T mutant expressed in HEK293FT cells assessed as fold change in intracellular doxorubicin accumulation using doxorubicin as substrate at 1 uM incubated for 150 mins by microplate reader assay relative to DMSO; type: cell-based; conditions: 2.5 h
[3] = molecular target: T3, ATP-dependent translocase ABCB1 (Homo sapiens, UniProt P08183, I1115F); assay: Negative allosteric modulator activity at human P-gp I1115F mutant expressed in HEK293FT cells assessed as fold change in intracellular doxorubicin accumulation using doxorubicin as substrate at 1 uM incubated for 150 mins by microplate reader assay relative to DMSO; type: cell-based; conditions: 2.5 h
[4] = molecular target: ATP-dependent translocase ABCB1 (Homo sapiens, UniProt P08183, G1114I); assay: Negative allosteric modulator activity at human P-gp G1114I mutant expressed in HEK293FT cells assessed as fold change in intracellular doxorubicin accumulation using doxorubicin as substrate at 1 uM incubated for 150 mins by microplate reader assay relative to DMSO; type: cell-based; conditions: 2.5 h
[5] = molecular target: ATP-dependent translocase ABCB1 (Homo sapiens, UniProt P08183, H1195A); assay: Negative allosteric modulator activity at human P-gp H1195A mutant expressed in HEK293FT cells assessed as fold change in intracellular doxorubicin accumulation using doxorubicin as substrate at 1 uM incubated for 150 mins by microplate reader assay relative to DMSO; type: cell-based; conditions: 2.5 h
[6] = molecular target: ATP-dependent translocase ABCB1 (Homo sapiens, UniProt P08183, G1114A); assay: Negative allosteric modulator activity at human P-gp G1114A mutant expressed in HEK293FT cells assessed as increase in intracellular doxorubicin accumulation using doxorubicin as substrate at 1 uM incubated for 150 mins by microplate reader assay (reference value: 98.8 +/- 1.4 %); type: cell-based; conditions: 2.5 h
[7] = molecular target: T4, ATP-dependent translocase ABCB1 (Homo sapiens, UniProt P08183, Q1193A); assay: Negative allosteric modulator activity at human P-gp Q1193A mutant expressed in HEK293FT cells assessed as fold change in intracellular doxorubicin accumulation using doxorubicin as substrate at 1 uM incubated for 150 mins by microplate reader assay relative to DMSO; type: cell-based; conditions: 2.5 h
[8] = molecular target: T1, ATP-dependent translocase ABCB1; assay: Negative allosteric modulator activity at human P-gp Q1193K mutant expressed in HEK293FT cells assessed as fold change in intracellular doxorubicin accumulation using doxorubicin as substrate at 1 uM incubated for 150 mins by microplate reader assay relative to DMSO; type: cell-based; conditions: 2.5 h
[9] = molecular target: ATP-dependent translocase ABCB1 (Homo sapiens, UniProt P08183, T1226W); assay: Negative allosteric modulator activity at human P-gp T1226W mutant expressed in HEK293FT cells assessed as reversal of P-gp mediated PTX resistance by measuring sensitivity fold change incubated for 5 days by MTS assay; type: cell-based; conditions: 120 h, time 5 day
[10] = molecular target: ATP-dependent translocase ABCB1 (Homo sapiens, UniProt P08183, I1115K); assay: Negative allosteric modulator activity at human P-gp I1115K mutant expressed in HEK293FT cells assessed as increase in intracellular doxorubicin accumulation using doxorubicin as substrate at 1 uM incubated for 150 mins by microplate reader assay (reference value: 97.8 +/- 3.1 %); type: cell-based; conditions: 2.5 h
[11] = molecular target: T5, ATP-dependent translocase ABCB1 (Homo sapiens, UniProt P08183, Q1193F); assay: Negative allosteric modulator activity at human P-gp Q1193F mutant expressed in HEK293FT cells assessed as increase in intracellular doxorubicin accumulation using doxorubicin as substrate at 1 uM incubated for 150 mins by microplate reader assay (reference value: 64.7 +/- 2.6 %); type: cell-based; conditions: 2.5 h
[12] = molecular target: T5, ATP-dependent translocase ABCB1; assay: Activation of P-gp ATPase activity in human P-gp Q1193F mutant expressed in HEK293FT cell microsomes assessed as fold change of ATPase activity at 20 uM incubated for 1 hr in presence of ATP by Glo-luminescence based microplate reader assay relative to DMSO; parameters: species or system Microsome
[13] = molecular target: T4, ATP-dependent translocase ABCB1; assay: Negative allosteric modulator activity at human P-gp Q1193A mutant expressed in HEK293FT cells assessed as reversal of P-gp mediated PTX resistance by measuring sensitivity fold change incubated for 5 days by MTS assay; type: cell-based; conditions: 120 h, time 5 day
[14] = molecular target: T2, ATP-dependent translocase ABCB1; assay: Negative allosteric modulator activity at human P-gp Q1193T mutant expressed in HEK293FT cells assessed as increase in intracellular doxorubicin accumulation using doxorubicin as substrate at 1 uM incubated for 150 mins by microplate reader assay (reference value: 65.5 +/- 0.9 %); type: cell-based; conditions: 2.5 h
[15] = molecular target: ATP-dependent translocase ABCB1 (Homo sapiens, UniProt P08183, I1115W); assay: Negative allosteric modulator activity at human P-gp I1115W mutant expressed in HEK293FT cells assessed as increase in intracellular doxorubicin accumulation using doxorubicin as substrate at 1 uM incubated for 150 mins by microplate reader assay (reference value: 98.4 +/- 1.3 %); type: cell-based; conditions: 2.5 h
[16] = molecular target: ATP-dependent translocase ABCB1 (Homo sapiens, UniProt P08183); assay: Negative allosteric modulator activity at human wildtype P-gp expressed in HEK293FT cells assessed as fold change in intracellular doxorubicin accumulation using doxorubicin as substrate at 1 uM incubated for 150 mins by microplate reader assay relative to DMSO; type: cell-based; conditions: 2.5 h
[17] = molecular target: P-gp (ABCB1) Q1193N mutant (Homo sapiens, UniProt P08183, Q1193N); assay: Activation of P-gp ATPase activity in human P-gp Q1193N mutant expressed in HEK293FT cell microsomes assessed as fold change of ATPase activity at 20 uM incubated for 1 hr in presence of ATP by Glo-luminescence based microplate reader assay relative to DMSO; parameters: species or system Microsome; conditions: read-out: FC
[18] = molecular target: T3, ATP-dependent translocase ABCB1; assay: Negative allosteric modulator activity at human P-gp I1115F mutant expressed in HEK293FT cells assessed as increase in intracellular doxorubicin accumulation using doxorubicin as substrate at 1 uM incubated for 150 mins by microplate reader assay (reference value: 65.5 +/- 0.9 %); type: cell-based; conditions: 2.5 h
[19] = molecular target: ATP-dependent translocase ABCB1 (Homo sapiens, UniProt P08183, T1226F); assay: Negative allosteric modulator activity at human P-gp T1226F mutant expressed in HEK293FT cells assessed as increase in intracellular doxorubicin accumulation using doxorubicin as substrate at 1 uM incubated for 150 mins by microplate reader assay (reference value: 67.6 +/- 1.9 %); type: cell-based; conditions: 2.5 h
[20] = molecular target: ATP-dependent translocase ABCB1 (Homo sapiens, UniProt P08183, G1114L); assay: Negative allosteric modulator activity at human P-gp G1114L mutant expressed in HEK293FT cells assessed as fold change in intracellular doxorubicin accumulation using doxorubicin as substrate at 1 uM incubated for 150 mins by microplate reader assay relative to DMSO; type: cell-based; conditions: 2.5 h

T1 sequence (P08183 whole entry Q1193K): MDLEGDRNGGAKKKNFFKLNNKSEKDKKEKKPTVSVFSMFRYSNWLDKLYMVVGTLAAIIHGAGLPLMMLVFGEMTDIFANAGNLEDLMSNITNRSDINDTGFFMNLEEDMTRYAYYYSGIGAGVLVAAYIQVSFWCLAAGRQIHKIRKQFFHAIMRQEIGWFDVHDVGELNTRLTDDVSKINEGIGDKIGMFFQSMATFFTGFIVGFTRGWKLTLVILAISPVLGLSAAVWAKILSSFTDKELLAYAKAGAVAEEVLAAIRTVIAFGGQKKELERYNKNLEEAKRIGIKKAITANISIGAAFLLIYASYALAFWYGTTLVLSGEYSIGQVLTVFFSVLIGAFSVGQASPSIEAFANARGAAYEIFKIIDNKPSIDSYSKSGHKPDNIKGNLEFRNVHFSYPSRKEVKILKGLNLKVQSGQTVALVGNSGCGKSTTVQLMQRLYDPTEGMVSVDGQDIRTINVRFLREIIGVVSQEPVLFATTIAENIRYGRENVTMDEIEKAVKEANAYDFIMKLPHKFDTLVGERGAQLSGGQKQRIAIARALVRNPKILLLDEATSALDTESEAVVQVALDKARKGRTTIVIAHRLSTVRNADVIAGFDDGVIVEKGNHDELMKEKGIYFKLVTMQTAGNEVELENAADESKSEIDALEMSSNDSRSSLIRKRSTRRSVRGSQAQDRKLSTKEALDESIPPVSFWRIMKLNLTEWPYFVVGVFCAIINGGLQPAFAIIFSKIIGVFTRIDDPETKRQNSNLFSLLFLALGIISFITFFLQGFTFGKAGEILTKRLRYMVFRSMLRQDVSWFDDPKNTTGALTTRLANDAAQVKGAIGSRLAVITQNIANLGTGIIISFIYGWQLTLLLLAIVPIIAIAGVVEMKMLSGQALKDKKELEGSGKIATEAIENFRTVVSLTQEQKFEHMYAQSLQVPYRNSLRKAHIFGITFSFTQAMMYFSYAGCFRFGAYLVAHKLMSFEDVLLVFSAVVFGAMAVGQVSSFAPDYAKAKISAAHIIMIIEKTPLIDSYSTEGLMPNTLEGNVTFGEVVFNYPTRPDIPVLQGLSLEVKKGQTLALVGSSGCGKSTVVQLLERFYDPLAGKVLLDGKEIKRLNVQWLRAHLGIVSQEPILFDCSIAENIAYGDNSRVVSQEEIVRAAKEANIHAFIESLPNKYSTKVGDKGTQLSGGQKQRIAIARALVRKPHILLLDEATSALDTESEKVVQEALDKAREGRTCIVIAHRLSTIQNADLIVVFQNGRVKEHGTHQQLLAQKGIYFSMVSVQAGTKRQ
T4 sequence (P08183 whole entry Q1193A): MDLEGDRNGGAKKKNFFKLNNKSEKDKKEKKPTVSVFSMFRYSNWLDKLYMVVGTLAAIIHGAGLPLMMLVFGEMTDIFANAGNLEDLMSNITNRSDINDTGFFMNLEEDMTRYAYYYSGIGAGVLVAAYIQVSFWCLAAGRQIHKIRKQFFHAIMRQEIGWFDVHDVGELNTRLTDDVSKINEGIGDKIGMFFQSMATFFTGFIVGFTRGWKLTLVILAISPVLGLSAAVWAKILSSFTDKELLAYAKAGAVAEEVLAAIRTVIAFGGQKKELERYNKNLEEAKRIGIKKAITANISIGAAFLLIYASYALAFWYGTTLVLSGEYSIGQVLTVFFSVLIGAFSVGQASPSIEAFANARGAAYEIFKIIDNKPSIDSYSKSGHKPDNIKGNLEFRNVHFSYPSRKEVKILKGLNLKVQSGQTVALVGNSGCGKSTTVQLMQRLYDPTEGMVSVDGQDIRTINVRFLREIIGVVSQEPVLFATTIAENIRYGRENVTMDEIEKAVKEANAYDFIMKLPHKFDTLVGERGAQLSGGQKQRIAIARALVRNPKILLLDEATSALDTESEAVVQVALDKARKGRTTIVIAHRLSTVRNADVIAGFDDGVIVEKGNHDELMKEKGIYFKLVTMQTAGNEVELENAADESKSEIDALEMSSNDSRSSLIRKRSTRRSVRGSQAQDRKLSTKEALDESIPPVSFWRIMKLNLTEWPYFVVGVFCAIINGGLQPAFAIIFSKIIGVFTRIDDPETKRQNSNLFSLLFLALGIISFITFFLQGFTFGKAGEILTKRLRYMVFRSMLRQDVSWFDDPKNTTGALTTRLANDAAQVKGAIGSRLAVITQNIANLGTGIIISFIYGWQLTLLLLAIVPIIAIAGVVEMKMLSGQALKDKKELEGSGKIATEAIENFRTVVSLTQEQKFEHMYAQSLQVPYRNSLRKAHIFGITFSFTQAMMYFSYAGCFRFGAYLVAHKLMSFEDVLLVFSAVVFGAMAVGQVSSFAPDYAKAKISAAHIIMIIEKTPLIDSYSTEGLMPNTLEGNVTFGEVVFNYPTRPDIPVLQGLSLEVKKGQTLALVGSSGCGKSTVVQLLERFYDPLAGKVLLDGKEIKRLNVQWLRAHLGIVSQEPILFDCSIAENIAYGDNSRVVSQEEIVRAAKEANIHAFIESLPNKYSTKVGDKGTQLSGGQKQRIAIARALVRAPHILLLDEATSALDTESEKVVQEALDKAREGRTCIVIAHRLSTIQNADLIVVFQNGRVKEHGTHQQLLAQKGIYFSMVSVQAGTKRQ
T5 sequence (P08183 whole entry Q1193F): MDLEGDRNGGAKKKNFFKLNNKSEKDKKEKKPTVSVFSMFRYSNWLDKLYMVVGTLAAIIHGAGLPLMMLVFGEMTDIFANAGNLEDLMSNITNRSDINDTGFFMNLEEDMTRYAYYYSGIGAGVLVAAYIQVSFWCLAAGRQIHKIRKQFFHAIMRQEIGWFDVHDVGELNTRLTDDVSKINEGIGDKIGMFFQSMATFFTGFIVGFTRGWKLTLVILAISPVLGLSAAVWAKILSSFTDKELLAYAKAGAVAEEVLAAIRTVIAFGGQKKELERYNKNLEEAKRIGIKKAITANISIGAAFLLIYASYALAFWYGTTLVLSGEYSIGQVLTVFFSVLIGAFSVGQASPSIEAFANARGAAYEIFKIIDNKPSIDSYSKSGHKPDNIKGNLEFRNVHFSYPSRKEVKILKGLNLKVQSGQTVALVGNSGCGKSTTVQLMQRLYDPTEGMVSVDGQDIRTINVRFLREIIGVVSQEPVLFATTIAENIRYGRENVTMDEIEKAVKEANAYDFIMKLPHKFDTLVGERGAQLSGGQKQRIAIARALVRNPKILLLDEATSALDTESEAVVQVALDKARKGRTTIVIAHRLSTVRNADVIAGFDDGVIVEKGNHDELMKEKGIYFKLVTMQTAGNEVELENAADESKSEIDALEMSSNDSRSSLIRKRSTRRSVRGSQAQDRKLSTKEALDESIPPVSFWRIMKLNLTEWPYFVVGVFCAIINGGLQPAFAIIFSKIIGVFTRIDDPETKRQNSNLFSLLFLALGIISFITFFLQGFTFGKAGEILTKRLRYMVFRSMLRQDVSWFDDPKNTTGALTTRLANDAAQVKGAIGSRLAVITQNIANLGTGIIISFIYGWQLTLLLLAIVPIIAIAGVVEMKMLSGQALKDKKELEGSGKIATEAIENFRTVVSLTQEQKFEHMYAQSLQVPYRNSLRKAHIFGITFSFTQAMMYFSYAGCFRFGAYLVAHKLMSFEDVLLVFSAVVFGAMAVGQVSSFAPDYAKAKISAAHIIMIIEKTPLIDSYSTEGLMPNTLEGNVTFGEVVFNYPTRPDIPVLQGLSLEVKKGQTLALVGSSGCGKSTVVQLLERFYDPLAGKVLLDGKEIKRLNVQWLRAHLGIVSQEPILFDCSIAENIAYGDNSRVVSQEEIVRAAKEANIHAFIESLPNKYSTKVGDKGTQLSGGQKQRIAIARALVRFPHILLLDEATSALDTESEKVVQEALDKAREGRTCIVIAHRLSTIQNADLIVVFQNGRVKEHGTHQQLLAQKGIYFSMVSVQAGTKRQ
T2 sequence (P08183 whole entry Q1193T): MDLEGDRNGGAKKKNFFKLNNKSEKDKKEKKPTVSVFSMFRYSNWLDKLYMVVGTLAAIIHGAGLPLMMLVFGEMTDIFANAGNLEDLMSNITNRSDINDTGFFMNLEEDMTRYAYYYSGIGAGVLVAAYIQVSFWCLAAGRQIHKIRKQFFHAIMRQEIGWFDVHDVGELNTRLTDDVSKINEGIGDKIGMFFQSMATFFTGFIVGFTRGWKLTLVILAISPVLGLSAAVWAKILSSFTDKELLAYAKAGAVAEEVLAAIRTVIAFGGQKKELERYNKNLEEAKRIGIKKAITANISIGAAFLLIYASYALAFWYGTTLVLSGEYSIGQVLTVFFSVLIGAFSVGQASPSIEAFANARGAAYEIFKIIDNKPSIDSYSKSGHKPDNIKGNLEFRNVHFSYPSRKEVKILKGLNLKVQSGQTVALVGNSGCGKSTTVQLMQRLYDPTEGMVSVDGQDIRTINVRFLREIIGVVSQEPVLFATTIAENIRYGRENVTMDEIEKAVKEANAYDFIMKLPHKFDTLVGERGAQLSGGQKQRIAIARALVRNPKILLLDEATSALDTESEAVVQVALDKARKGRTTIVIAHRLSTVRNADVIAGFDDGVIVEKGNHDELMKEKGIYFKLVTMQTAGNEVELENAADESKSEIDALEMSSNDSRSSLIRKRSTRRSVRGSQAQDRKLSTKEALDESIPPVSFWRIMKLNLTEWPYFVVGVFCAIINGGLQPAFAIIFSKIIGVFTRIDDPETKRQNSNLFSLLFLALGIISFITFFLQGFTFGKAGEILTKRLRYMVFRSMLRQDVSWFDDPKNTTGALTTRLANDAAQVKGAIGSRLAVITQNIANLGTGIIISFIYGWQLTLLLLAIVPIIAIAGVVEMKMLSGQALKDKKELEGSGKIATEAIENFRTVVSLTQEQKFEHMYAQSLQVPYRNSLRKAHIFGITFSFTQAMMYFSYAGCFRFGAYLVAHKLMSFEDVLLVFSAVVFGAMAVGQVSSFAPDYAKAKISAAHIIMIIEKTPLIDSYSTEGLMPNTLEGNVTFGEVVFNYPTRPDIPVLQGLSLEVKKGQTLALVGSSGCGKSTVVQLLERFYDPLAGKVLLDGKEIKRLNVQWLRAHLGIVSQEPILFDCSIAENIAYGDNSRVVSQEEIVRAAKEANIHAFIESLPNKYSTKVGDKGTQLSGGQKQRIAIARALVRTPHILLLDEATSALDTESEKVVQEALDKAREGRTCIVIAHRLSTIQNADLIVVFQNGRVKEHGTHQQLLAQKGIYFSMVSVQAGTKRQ

Compound: O=c1cc(-c2ccc(OCCOCCNCc3ccccc3)cc2)oc2ccccc12
- Activity [1]: 87.8%
- fold change (FC) [2]: 1.3
- fold change (FC) [3]: 1.3
- fold change (FC) [4]: 1
- fold change (FC) [5]: 1.1
- Activity [6]: 93.5%
- fold change (FC) [7]: 1.1
- fold change (FC) [8]: 1.3
- fold change (FC) [9]: 56.8
- Activity [10]: 100.1%
- Activity [11]: 74.6%
- fold change (FC) [12]: 1.1
- fold change (FC) [13]: 4.3
- Activity [14]: 85.4%
- Activity [15]: 99%
- fold change (FC) [16]: 1.9
- fold induction at 1 h, 20 µM [17]: 1.7
- Activity [18]: 83.8%
- Activity [19]: 100.3%
- fold change (FC) [20]: 1

— ChEMBL document CHEMBL5338754, “Identification of Binding Sites in the Nucleotide-Binding Domain of P-Glycoprotein for a Potent and Nontoxic Modulator, the Amine-Containing Monomeric Flavonoid FM04” (J Med Chem, 2023)
